In BindingDB's records for doi:10.1021/jm00391a032 (1987):

Molecular target: Beta-lactamase/penicillinase (Bacillus sp.)
Test: Inhibitory activity against Beta-lactamase from Bacillus sp. using penicillin G as substrate

Row | SMILES | IC50
1 | C[C@]1(Cn2cc(N)nn2)[C@H](C(=O)O)C2C(=O)CC2S1(=O)=O (some centres not stated) | 700 nM
2 | COC(=O)c1nnn(C[C@@]2(C)[C@H](C(=O)O)C3C(=O)CC3S2(=O)=O)c1C(=O)OC (some centres not stated) | 300 nM
3 | CCOC(=O)c1cn(C[C@@]2(C)[C@H](C(=O)O)C3C(=O)CC3S2(=O)=O)nn1 (some centres not stated) | 54 nM
4 | COC(=O)c1cnnn1C[C@@]1(C)[C@H](C(=O)O)C2C(=O)CC2S1(=O)=O (some centres not stated) | 300 nM
5 | C[C@]1(Cn2nncc2C(=O)O)[C@H](C(=O)O)C2C(=O)CC2S1(=O)=O (some centres not stated) | 1700 nM
6 | C[C@]1(Cn2cc([Si](C)(C)C)nn2)[C@H](C(=O)O)C2C(=O)CC2S1(=O)=O (some centres not stated) | 510 nM
7 | CCOC(=O)c1cnnn1C[C@@]1(C)[C@H](C(=O)O)C2C(=O)CC2S1(=O)=O (some centres not stated) | 340 nM
